Results taken from patent publication EP2025678A1, “Pyrazolo[3,4-d]pyrimidine compounds and their use as modulators of protein kinase” (Oncalis AG, priority 2007, dated 2009).

Assays:
human EphB4 [1] = molecular target: T1, human EphB4 (Homo sapiens, UniProt P54760); experiment: in vitro enzymatic kinase assay EphB4 (ADP Hunter assay kit); assay type: biochemical; conditions: cell-free; ATP 300uM; poly (Glu4-Tyr) 800uM
T1 sequence (P54760 16-987): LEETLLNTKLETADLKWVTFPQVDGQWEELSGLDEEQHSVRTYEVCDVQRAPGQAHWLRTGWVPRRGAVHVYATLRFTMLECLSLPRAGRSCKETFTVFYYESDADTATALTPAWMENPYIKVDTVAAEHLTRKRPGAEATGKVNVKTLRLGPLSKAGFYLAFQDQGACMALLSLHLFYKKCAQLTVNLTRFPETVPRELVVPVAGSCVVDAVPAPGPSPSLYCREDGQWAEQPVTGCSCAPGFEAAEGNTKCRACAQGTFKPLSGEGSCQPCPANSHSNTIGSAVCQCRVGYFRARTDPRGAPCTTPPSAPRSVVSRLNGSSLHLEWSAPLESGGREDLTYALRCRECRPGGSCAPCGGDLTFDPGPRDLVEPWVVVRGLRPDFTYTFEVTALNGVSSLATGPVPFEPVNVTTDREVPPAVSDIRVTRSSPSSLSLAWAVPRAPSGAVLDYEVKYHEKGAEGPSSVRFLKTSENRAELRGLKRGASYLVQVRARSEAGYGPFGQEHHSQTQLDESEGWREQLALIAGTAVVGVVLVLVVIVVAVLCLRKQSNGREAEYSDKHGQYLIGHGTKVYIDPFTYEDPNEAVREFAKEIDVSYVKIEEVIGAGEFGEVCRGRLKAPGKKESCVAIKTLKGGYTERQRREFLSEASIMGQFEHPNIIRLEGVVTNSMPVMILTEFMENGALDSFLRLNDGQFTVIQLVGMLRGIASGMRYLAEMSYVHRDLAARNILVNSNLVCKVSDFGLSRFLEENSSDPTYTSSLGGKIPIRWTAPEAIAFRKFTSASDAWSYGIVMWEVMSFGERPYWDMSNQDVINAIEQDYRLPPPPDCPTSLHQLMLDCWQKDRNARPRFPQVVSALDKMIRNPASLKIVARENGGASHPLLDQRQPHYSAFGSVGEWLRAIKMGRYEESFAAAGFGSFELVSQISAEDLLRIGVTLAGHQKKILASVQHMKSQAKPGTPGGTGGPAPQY
Protocol: EphB4 inhibition activity of compounds was measured in an in vitro enzymatic kinase assay using the ADP Hunter assay kit (DiscoveRx Corp.), which measures accumulation of ADP produced by the kinase enzyme activity. EphB4 kinase (2ug/mL) is preincubated with different concentrations of compounds for 15 minutes at room temperature in kinase buffer (HEPES 15mM, MgCl2 10mM, EDTA 0.5mM, NaCl 20mM, Tween-20 0.02%, pH 7.4). ATP (300uM) is added and the mixture is incubated for 30 minutes at room temperature for enzyme activation. The peptide substrate poly (Glu4-Tyr) 800uM is added and the mixture is incubated for 60 minutes at 30°C. An enzyme- coupled reaction produces a red-shifted fluorescent signal that is directly proportional to the amount of ADP in solution. Fluorescence emission is measured at 590nm with excitation at 535nm.

human EphB4 [2] = molecular target: T1, human EphB4; experiment: Cellular autophosphorylation assay EphB4 (ELISA) in CHO-EphB4 cells; assay type: cell-based; set-up: stably transfected with myc-tagged full length human EphB4; expressed in transfected cells; host or cells: CHO (chinese hamster ovary); conditions: ephrinB2/Fc induced autophosphorylation
Protocol: CHO (chinese hamster ovary) cells were stably transfected with myc-tagged full length human EphB4. A cell line expressing EphB4 of which the phosphorylation was inducible with ephrinB2/Fc was identified and called CHO-EphB4. CHO-EphB4 cells were seeded into 96-well plates and cultured overnight in HAM-F12 medium supplemented with 10% fetal calf serum (FCS). Cells were washed once with PBS and different concentrations of compounds in HAM-F12 medium (final concentration of DMSO in the assay was 1%) were added. Cells were incubated at 37°C for 15 minutes. Ligand ephrinB2/Fc (R&D Systems, 1ug/mL final), which had been pre-clustered with anti-IgG Fc antibody (Jackson ImmunoResearch) for 45 minutes at room temperature, was added and cells were further incubated at 37°C for 45 minutes. Cells were lysed in 30uL lysis buffer per well (20mM Tris pH8, 150mM NaCl, 10% glycerol, 1% Triton X-100, 1mM Na3VO4, 1mM EDTA pH8, 1mM EGTA pH8, 1x protease inhibitor cocktail Sigma). ELISA 96-well plates (Nunc, Maxisorp) were coated with 100uL/well anti-c-myc antibody (Sigma) overnight at 4°C, blocked with 300uL/well 5% milk in TBS/0.005% Tween 20 (TBST) for 1 to 3 hours at room temperature, and incubated with 25uL/well cell lysate overnight at 4°C. ELISA plates were washed twice with TBST and incubated with 100uL/well antiphosphotyrosine HRP-coupled antibody (Upstate) diluted 1:1000 in 5% milk in TBST for 1.5 hour at room temperature and developed with 100uL/well BM BluePOD substrate (Roche). Absorbance was measured at 450nm.

VEGFR-1 = molecular target: T2, VEGFR-1 (Homo sapiens, UniProt P17948); experiment: yeast growth assay, specificity profiling, VEGFR-1; assay type: cell-based; conditions: Table Y; legend not given
T2 construct: expressed in transfected cells; host or cells: yeast
Protocol: (§1) The yeast growth assay was performed as described in "Method for the identification and/or validation of receptor tyrosine kinase inhibitors" WO2005/040413, section "Modes for Carrying out the Invention", Experiment 1 and Experiment 2: Yeast cells carrying plasmids with the RTK of interest were grown in glucose containing medium (repressing expression). Cultures were diluted into galactose containing medium, which induces expression of the kinase. Expression of the kinase inhibits growth of the yeast cells, which allows for positive selection of kinase inhibitors restoring growth of cells.

PDGFRb = molecular target: T3, PDGFRb (Homo sapiens, UniProt P09619); experiment: yeast growth assay, specificity profiling, PDGFRb; assay type: cell-based; conditions: Table Y; legend not given
T3 construct: expressed in transfected cells; host or cells: yeast
Protocol: as §1

ErbB2 = molecular target: T4, ErbB2 (Homo sapiens, UniProt P04626); experiment: yeast growth assay, specificity profiling, ErbB2; assay type: cell-based; conditions: Table Y; legend not given
T4 construct: expressed in transfected cells; host or cells: yeast
Protocol: as §1

EGFR = molecular target: T5, EGFR (Homo sapiens, UniProt P00533); experiment: yeast growth assay, specificity profiling, EGFR; assay type: cell-based; conditions: Table Y; legend not given
T5 construct: expressed in transfected cells; host or cells: yeast
Protocol: as §1

IGF1R = molecular target: T6, IGF1R (Homo sapiens, UniProt P08069); experiment: yeast growth assay, specificity profiling, IGF1R; assay type: cell-based; conditions: Table Y; legend not given
T6 construct: expressed in transfected cells; host or cells: yeast
Protocol: as §1

InsR = molecular target: T7, InsR (Homo sapiens, UniProt P06213); experiment: yeast growth assay, specificity profiling, InsR; assay type: cell-based; conditions: Table Y; legend not given
T7 construct: expressed in transfected cells; host or cells: yeast
Protocol: as §1

VEGFR-2 = molecular target: T8, VEGFR-2 (Homo sapiens, UniProt P35968); experiment: yeast growth assay, specificity profiling, VEGFR-2; assay type: cell-based; conditions: Table Y; legend not given
T8 construct: expressed in transfected cells; host or cells: yeast
Protocol: as §1

c-Met = molecular target: T9, c-Met (Homo sapiens, UniProt P08581); experiment: yeast growth assay, specificity profiling, c-Met; assay type: cell-based; conditions: Table Y; legend not given
T9 construct: expressed in transfected cells; host or cells: yeast
Protocol: as §1

T3 sequence (P09619 33-1106): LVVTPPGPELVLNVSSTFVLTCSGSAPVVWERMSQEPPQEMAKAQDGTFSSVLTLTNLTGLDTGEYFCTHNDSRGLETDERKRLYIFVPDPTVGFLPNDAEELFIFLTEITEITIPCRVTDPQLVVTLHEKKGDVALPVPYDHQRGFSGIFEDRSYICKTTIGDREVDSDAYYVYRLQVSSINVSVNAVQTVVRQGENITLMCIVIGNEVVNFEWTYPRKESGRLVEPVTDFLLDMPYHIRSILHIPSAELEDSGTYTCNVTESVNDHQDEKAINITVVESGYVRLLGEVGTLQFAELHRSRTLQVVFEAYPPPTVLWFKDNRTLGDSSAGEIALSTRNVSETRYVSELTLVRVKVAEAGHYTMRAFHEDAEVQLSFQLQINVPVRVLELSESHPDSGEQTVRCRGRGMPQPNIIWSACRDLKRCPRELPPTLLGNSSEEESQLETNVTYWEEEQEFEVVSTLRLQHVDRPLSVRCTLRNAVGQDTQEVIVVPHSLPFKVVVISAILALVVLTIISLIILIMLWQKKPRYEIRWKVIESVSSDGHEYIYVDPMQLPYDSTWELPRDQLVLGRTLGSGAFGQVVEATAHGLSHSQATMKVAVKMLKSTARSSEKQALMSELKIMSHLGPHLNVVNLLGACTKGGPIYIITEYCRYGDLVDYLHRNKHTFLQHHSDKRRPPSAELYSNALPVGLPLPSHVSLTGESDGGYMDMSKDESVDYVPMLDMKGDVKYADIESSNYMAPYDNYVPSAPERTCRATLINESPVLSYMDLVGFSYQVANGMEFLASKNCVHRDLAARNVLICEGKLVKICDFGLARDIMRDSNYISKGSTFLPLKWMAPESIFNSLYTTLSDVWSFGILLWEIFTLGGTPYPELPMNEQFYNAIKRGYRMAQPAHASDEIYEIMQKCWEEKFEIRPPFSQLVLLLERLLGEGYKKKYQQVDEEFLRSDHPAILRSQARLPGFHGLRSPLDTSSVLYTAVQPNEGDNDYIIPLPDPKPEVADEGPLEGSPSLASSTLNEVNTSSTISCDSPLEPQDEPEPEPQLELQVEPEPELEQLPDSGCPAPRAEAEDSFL
T9 sequence (P08581 25-1390): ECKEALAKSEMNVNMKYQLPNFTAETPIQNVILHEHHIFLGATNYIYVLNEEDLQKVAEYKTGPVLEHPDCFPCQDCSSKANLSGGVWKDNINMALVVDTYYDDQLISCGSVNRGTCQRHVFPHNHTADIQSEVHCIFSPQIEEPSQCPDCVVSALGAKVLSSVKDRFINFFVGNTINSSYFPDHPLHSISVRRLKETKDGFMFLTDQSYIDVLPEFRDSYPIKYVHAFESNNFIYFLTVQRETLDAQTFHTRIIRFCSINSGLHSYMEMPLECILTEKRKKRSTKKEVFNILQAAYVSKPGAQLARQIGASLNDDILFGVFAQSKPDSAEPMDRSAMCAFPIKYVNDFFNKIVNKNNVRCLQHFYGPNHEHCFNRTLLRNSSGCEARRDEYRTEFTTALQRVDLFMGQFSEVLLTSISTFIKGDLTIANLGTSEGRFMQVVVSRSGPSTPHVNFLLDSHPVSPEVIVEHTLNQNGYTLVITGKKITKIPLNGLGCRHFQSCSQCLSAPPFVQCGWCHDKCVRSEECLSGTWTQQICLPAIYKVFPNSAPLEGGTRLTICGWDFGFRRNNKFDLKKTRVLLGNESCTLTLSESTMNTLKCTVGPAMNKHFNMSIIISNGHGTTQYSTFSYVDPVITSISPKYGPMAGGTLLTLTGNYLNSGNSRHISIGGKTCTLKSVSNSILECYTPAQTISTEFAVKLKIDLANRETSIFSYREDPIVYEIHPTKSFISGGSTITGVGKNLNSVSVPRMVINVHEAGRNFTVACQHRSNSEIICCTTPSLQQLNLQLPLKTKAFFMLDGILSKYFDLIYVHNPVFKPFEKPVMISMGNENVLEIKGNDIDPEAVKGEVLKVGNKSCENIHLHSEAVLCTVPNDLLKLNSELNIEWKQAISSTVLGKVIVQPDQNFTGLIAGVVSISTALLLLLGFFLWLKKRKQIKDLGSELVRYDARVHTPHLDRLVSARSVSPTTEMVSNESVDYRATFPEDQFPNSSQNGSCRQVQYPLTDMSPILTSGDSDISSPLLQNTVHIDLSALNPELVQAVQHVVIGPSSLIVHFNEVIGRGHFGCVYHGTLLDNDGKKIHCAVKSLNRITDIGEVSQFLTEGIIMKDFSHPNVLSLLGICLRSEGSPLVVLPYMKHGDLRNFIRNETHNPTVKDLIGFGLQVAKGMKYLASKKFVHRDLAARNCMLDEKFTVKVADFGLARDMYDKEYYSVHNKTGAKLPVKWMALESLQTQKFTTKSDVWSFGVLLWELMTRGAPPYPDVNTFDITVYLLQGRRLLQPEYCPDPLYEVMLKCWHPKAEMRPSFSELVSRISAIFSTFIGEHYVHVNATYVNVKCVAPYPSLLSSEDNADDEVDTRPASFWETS
T5 sequence (P00533 25-1210): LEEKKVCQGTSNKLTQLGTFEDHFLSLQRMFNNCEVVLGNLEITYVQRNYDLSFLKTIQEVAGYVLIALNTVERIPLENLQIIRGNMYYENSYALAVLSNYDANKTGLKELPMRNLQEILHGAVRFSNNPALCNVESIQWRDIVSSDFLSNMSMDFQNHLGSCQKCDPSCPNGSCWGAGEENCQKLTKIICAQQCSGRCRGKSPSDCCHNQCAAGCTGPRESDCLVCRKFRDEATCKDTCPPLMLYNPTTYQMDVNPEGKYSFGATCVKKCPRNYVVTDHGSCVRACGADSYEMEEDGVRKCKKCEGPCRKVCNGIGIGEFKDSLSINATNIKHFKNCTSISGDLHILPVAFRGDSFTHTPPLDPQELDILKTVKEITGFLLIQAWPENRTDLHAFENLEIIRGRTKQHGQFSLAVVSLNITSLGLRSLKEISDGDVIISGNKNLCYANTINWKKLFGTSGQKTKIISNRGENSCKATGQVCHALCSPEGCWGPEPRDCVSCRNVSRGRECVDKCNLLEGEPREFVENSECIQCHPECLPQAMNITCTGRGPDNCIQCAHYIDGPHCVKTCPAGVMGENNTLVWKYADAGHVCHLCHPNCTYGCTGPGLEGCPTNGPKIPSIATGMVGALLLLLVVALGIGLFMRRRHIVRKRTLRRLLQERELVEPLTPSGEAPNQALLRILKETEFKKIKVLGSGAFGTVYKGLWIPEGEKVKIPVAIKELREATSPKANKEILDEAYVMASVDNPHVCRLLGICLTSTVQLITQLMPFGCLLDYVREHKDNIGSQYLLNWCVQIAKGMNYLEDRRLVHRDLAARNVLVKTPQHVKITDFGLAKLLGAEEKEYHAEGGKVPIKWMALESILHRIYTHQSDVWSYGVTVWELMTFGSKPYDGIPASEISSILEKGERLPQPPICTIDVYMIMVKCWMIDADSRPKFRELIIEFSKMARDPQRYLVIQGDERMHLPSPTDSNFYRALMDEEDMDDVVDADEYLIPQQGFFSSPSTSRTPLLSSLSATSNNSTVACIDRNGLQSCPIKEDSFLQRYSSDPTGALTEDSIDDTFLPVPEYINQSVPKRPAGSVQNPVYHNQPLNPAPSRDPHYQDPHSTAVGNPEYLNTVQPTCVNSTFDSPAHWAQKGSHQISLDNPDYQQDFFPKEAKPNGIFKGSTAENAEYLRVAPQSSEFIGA
T4 sequence (P04626 23-1255): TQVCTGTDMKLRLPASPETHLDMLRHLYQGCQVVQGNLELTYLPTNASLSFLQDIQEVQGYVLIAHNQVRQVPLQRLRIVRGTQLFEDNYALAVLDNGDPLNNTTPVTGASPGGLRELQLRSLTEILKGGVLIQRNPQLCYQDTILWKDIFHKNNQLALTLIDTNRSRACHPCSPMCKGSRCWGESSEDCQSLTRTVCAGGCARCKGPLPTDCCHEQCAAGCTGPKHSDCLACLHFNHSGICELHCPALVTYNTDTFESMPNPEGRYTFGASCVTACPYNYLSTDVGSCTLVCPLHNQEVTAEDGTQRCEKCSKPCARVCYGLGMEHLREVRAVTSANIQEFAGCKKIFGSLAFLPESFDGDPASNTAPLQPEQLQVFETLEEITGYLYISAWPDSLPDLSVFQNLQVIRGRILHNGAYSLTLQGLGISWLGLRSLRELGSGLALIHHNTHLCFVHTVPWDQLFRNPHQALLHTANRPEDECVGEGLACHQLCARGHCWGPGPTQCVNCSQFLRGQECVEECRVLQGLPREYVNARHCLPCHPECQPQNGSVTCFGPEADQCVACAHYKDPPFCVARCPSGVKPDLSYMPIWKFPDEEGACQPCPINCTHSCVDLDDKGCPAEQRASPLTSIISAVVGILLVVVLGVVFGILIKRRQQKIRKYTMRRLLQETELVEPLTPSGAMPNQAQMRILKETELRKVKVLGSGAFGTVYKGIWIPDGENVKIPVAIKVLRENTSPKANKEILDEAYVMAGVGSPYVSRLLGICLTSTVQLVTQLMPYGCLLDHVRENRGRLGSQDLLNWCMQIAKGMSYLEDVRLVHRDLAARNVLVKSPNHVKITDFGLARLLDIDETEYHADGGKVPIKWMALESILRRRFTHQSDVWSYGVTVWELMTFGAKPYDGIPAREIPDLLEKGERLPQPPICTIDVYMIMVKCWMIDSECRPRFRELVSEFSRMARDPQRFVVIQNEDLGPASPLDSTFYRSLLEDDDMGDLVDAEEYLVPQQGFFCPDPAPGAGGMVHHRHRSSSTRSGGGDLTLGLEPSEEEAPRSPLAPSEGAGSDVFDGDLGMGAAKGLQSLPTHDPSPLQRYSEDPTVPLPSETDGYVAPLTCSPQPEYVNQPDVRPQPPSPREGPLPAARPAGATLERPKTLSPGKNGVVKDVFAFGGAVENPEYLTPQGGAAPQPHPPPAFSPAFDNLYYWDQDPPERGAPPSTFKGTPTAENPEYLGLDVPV

| SMILES | IC50 (human EphB4 [1]) [nM] | further results |
| --- | --- | --- |
| Cc1ccc(Nc2nc(NCc3ccco3)nc3c2cnn3C)c(C)c1 | 1000 to 10000 | – |
| CCCNc1nc(Nc2ccc(Cl)cc2C)c2cnn(C)c2n1 | 1000 to 10000 | – |
| Cc1cc(Cl)ccc1Nc1nc(NC2CCCC2)nc2c1cnn2C | 1000 to 10000 | IC50 (human EphB4 [2]): 1000 to 10000 nM |
| Cc1ccccc1Nc1nc(Nc2ccccc2)nc2c1cnn2C | 1000 to 10000 | – |
| Cc1ccccc1Nc1nc(Nc2ccc(F)cc2)nc2c1cnn2C | 1000 to 10000 | – |
| CCCNc1nc(Nc2ccccc2C)c2cnn(C)c2n1 | < 1000 | – |
| CCCCNc1nc(Nc2ccccc2C)c2cnn(C)c2n1 | < 1000 | IC50 (human EphB4 [2]): < 1000 nM |
| COCCNc1nc(Nc2ccccc2C)c2cnn(C)c2n1 | < 1000 | – |
| COCCCNc1nc(Nc2ccccc2C)c2cnn(C)c2n1 | < 1000 | – |
| C=CCNc1nc(Nc2ccccc2C)c2cnn(C)c2n1 | < 1000 | – |
| Cc1ccccc1Nc1nc(NC2CCCC2)nc2c1cnn2C | < 1000 | – |
| Cc1ccccc1Nc1nc(NCc2ccccc2)nc2c1cnn2C | 1000 to 10000 | – |
| Cc1ccccc1Nc1nc(NCc2ccccc2Cl)nc2c1cnn2C | 1000 to 10000 | IC50 (human EphB4 [2]): < 1000 nM |
| Cc1ccccc1Nc1nc(NCc2ccco2)nc2c1cnn2C | < 1000 | IC50 (human EphB4 [2]): 1000 to 10000 nM |
| Cc1ccccc1Nc1nc(N(C)C)nc2c1cnn2C | 1000 to 10000 | – |
| Cc1ccccc1Nc1nc(N2CCCC2)nc2c1cnn2C | 1000 to 10000 | – |
| CCNc1nc(Nc2ccccc2C)c2cnn(C)c2n1 | < 1000 | IC50 (human EphB4 [2]): < 1000 nM |
| CNc1nc(Nc2ccccc2C)c2cnn(C)c2n1 | < 1000 | – |
| Cc1ccccc1Nc1nc(N2CCOCC2)nc2c1cnn2C | 1000 to 10000 | – |
| CCN(CC)CCNc1nc(Nc2ccccc2C)c2cnn(C)c2n1 | < 1000 | – |
| Cc1ccccc1Nc1nc(N2CCN(C(=O)c3ccco3)CC2)nc2c1cnn2C | 1000 to 10000 | – |
| CCNc1nc(Nc2ccc(C)cc2C)c2cnn(C)c2n1 | 1000 to 10000 | – |
| CNc1nc(Nc2ccc(C)cc2C)c2cnn(C)c2n1 | 1000 to 10000 | – |
| CNc1nc(Nc2ccc(Cl)cc2C)c2cnn(C)c2n1 [[drawing]] | – | Specificity profiling in the yeast growth assay: VEGFR-1 (VEGFR-1): 0; Specificity profiling in the yeast growth assay: PDGFRb (PDGFRb): 0; Specificity profiling in the yeast growth assay: ErbB2 (ErbB2): 0; Specificity profiling in the yeast growth assay: EGFR (EGFR): 0; Specificity profiling in the yeast growth assay: IGF1R (IGF1R): 0; Specificity profiling in the yeast growth assay: InsR (InsR): 0; Specificity profiling in the yeast growth assay: VEGFR-2 (VEGFR-2): 0; Specificity profiling in the yeast growth assay: c-Met (c-Met): 0 |
| CNc1nc(Nc2ccc(Cl)cc2C)c2cnn(C)c2n1 [drawing 56] | 1000 to 10000 | IC50 (human EphB4 [2]): > 10000 nM |
